Measured values taken from US20100292184A1, “17BETA-CYANO-19-ANDROST-4-ENE DERIVATIVE, ITS USE AND MEDICAMENTS COMPRISING THE DERIVATIVE” (BAYER SCHERING PHARMA AG, priority 2007, published 2010).
Read-outs that look alike come from different tables or passages of the source.

Columns and labels:
[1] = target: T1, PR (Rattus norvegicus, UniProt Q63449); experiment: maintenance of pregnancy test on the rat; format: in vivo; conditions: ovarectomized pregnant rats; for PR in vivo ED50 (pregnancy-maintaining dose): s.c. once daily from day 8 to day 15 or 21, with oestrone 5 μg/kg/day
T1 construct: from tissue; host or cells: whole animal: pregnant, ovariectomized rats
T1 sequence (Q63449 1-923): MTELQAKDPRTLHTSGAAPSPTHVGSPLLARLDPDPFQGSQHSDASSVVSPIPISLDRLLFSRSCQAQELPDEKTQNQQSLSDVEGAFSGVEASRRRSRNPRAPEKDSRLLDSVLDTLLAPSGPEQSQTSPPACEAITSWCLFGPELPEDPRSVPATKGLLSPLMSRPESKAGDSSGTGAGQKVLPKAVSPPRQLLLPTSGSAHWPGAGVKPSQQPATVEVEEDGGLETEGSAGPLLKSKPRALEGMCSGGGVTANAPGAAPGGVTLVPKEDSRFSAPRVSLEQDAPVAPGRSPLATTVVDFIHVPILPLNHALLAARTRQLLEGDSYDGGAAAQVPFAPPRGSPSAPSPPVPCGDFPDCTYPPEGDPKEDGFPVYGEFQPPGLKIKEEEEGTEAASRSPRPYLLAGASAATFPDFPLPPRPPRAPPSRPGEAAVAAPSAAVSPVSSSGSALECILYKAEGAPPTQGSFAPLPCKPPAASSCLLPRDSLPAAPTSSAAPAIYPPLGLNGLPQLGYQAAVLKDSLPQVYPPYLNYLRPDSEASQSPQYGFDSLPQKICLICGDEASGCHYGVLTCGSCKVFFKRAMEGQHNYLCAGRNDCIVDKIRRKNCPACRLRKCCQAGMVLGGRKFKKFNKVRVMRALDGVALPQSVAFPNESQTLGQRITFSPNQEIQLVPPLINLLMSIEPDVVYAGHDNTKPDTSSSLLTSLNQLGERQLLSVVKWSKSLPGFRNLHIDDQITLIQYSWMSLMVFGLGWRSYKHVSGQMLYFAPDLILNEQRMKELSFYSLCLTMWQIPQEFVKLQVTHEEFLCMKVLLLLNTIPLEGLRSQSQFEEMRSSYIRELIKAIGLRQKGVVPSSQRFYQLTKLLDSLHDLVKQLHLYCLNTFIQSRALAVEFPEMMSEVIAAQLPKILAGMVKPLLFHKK
Excerpt: Carrying out the maintenance of pregnancy test on the rat:
In pregnant rats, the removal of the corpora lutea or oophorectomy induces an abortion. By means of the exogenous administration of progestins (gestagens) in combination with a suitable dose of an oestrogen, the maintenance of pregnancy is possible. The maintenance of pregnancy test on ovarectomized rats serves for the determination of the peripheral gestagenic activity of a compound.
Rats were paired overnight during proestrus. Pairing was checked on the morning of the following day by the appraisal of a vaginal smear. The presence of the sperm was evaluated here as day 1 of a commencing pregnancy. On day 8 of the pregnancy, the animals were ovarectomized under ether anaesthesia. The treatment with test compound and exogenous oestrogen (oestrone, 5 μg/kg/day) was carried out subcutaneously once daily from day 8 to day 15 or day 21 of the pregnancy. The first administration on day 8 was carried out two hours before oophorectomy. Intact control animals were given exclusively vehicle.
At the end of the experiment (day 15 or day 21), the animals were sacrificed under a CO2 atmosphere, and live foetuses (foetuses having a beating heart) and implantation sites (early resorptions and dead foetuses including autolysis and atrophic placentas) were counted in both uterine horns. On day 22, it was moreover possible to examine foetuses for malformations. In uteri without foetuses or implantation sites, the number of nidation sites was determined by staining with 10% strength ammonium sulphide solution. The maintenance of pregnancy rate was calculated as the quotient of the number of living foetuses and the total number of nidation sites (both resorbed and dead foetuses and nidation sites). For drospirenone, this value is 3.5 mg/kg/day.

[2] = target: T2, mineralcorticoid receptor (Homo sapiens, UniProt P08235); experiment: MR antagonism luciferase reporter cell line assay; format: cell-based
T2 sequence (P08235 1-984): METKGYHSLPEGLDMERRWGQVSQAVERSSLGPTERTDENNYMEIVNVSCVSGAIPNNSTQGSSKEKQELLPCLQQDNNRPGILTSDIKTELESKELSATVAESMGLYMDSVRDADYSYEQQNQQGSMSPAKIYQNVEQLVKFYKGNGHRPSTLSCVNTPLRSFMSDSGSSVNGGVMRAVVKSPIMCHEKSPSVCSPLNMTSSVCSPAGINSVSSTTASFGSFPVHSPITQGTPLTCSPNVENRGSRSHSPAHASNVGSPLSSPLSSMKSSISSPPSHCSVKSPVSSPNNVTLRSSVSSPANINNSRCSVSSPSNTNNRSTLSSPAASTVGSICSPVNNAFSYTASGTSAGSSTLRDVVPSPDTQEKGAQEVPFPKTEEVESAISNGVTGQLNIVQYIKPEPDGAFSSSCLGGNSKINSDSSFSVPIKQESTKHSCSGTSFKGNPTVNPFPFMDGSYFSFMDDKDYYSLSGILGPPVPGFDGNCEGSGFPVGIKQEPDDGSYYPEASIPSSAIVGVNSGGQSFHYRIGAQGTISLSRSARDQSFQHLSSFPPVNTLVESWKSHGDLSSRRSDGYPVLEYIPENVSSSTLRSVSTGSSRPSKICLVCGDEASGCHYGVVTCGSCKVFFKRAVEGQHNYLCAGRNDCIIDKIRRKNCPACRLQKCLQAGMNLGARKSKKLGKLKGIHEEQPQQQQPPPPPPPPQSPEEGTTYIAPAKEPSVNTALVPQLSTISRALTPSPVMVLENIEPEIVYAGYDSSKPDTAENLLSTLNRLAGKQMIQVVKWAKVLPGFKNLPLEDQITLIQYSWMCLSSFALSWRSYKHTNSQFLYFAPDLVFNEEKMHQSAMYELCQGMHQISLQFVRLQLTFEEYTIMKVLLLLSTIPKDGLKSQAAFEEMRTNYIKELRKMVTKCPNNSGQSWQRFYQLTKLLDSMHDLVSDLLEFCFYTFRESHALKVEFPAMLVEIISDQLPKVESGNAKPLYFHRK
Experimental: The derivatives according to the invention having the general chemical formula have a very strong gestagenic activity. […] They should therefore have in vivo potassium-retaining, natriuretic (antimeralcorticoid) action. These properties were determined using the test described below:
For the culturing of the cells used for the assay, the culture medium used was DMEM (Dulbecco's Modified Eagle Medium: […] of glucose; PAA, #E15-009) with 10% FCS (Biochrom, S0115, batch #615B), 4 mM L-glutamine, 1% penicillin/streptomycin, 1 mg/ml of G418 and 0.5 μg/ml of puromycin.
Reporter cell lines were grown in a density of 4×10^4 cells per hollow in white, nontransparent tissue culture plates in each case having 96 hollows (PerkinElmer, #P12-106-017) and kept in 6% DCC-FCS (activated carbon-treated serum, for the removal of interfering components contained in the serum). The compounds to be investigated were added eight days later, and the cells were incubated with the compounds for 16 hours. The experiments were carried out in triplicate. At the end of the incubation, the effector-containing medium was removed and replaced by lysis buffer. After luciferase assay substrate (promega, #E1501) had been added, the plates containing the 96 hollows were then introduced into a microplate luminometer (Pherastar, BMG labtech), and the luminescence was measured. The […] values were evaluated using software for the calculation of dose-activity relationships.

[3] = reporter cell lines, 16 hours incubation, luciferase luminescence
[4] = reporter cell lines, 16 hours incubation, luciferase luminescence, read-out: MR Antagonism IC50

Row | Compound | PR in vivo ED50 (pregnancy-maintaining dose) [1] [mg/kg/d s.c.] | IC50 [2] [nM] | MR Antagonism activity [% of the maximum effect] [2, 3] | IC50 [2, 4] [nM] | pregnancy-maintaining dose (ED50) ([1]; subcutaneous, with oestrone 5 μg/kg/day) [mg/kg/day]
1 | C[C@]12CC[C@H]3[C@@H](CC4(CC4)C4=CC(=O)CC[C@@]43C)[C@@H]1CC[C@@H]2C#N | 25.0 | 20 | 99.16 % of the maximum effect | – | –
2 | C[C@]12CC[C@H]3[C@@H]([C@H]4C[C@H]4C4=CC(=O)CC[C@@]43C)[C@@H]1[C@@H]1C[C@@H]1[C@@H]2C#N [6β,7β-15β,16β-Bismethylene-17β-cyanoandrost-4-en-3-one] | 7.3 | 4.7 | 98.06 % of the maximum effect | – | –
3 | C=CC[C@]1(C#N)CC[C@H]2[C@@H]3CCC4=CC(=O)CC[C@]4(C)[C@H]3CC[C@@]21C [17α-Allyl-17β-cyanoandrost-4-en-3-one] | – | – | 65.30 % of the maximum effect | 990 | –
4 | C[C@]12CCC(=O)C=C1CC[C@H]1[C@@H]3[C@@H]4C[C@@H]4[C@](C)(C#N)[C@@]3(C)CC[C@@H]12 [17β-Cyano-17α-methyl-15β,16β-methyleneandrost-4-en-3-one] | 10.0 | – | 98.30 % of the maximum effect | 42 | –
5 | C[C@]12CCC(=O)C=C1[C@@H]1C[C@@H]1[C@H]1[C@@H]3[C@@H]4C[C@@H]4[C@@]4(CCC(=O)O4)[C@@]3(C)CC[C@@H]12 [drospirenone, 6β,7β-15β,16β-dimethylene-3-oxo-17-pregn-4-ene-21,17β-carbolactone, reference compound] | – | – | – | – | 3.5
